Earlier results in patent US11123318B2 (APR APPLIED PHARMA RESEARCH S.A., priority 2017, dated 2021).

Experiments:
[1] = not given; remark: listed apart in the source

## O=C(O)Cc1ccccc1Nc1c(Cl)cccc1Cl [Diclofenac, 2-(2-[2,6-diclorofenilammino]phenyl) ethanoic acid]
After oral administration
  absorption through the gastrointestinal tract: completely absorbed
  time to peak plasma level: ≤ 1 h
In vivo
  administered dose eliminated as the metabolite by the renal route: About 60%
  administered dose excreted in the bile and in the faeces: About 30%
  excreted as unchanged substance by the renal route: less than 1%
[1]
  solubility in water: low solubility
